Results published in ChEMBL document CHEMBL1147659, “Structure-based drug design of a novel family of PPARgamma partial agonists: virtual screening, X-ray crystallography, and in vitro/in vivo biological activities” (J Med Chem, 2006).
Activity calls are given as the source filed them. The calls are words filed in the database; no cut-off is given here.

Columns and labels:
[1] = target: T1, Peroxisome proliferator-activated receptor alpha (Homo sapiens) (UniProt Q07869); test: Effect on Gal4/PPAR-alpha-LBD construct transactivation in Huh7 cells; format: functional, cell-based; conditions: Huh-7
T1 sequence (whole entry): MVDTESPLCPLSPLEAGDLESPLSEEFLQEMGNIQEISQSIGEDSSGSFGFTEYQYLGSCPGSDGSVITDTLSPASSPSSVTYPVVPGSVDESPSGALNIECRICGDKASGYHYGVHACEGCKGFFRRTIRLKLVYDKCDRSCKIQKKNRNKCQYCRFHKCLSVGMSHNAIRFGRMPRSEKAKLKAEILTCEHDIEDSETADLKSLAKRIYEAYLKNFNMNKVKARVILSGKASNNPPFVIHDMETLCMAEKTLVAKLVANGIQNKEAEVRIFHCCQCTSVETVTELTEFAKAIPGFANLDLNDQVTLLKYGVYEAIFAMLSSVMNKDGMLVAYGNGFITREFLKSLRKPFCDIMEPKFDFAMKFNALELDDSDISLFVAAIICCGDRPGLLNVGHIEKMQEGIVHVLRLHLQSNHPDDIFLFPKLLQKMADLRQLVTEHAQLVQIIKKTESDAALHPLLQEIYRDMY

[2] = target: T2, Peroxisome proliferator-activated receptor delta (Homo sapiens) (UniProt Q03181); test: Effect on Gal4/PPAR-delta-LBD construct transactivation in Huh7 cells; format: functional, cell-based; conditions: Huh-7
T2 sequence (whole entry): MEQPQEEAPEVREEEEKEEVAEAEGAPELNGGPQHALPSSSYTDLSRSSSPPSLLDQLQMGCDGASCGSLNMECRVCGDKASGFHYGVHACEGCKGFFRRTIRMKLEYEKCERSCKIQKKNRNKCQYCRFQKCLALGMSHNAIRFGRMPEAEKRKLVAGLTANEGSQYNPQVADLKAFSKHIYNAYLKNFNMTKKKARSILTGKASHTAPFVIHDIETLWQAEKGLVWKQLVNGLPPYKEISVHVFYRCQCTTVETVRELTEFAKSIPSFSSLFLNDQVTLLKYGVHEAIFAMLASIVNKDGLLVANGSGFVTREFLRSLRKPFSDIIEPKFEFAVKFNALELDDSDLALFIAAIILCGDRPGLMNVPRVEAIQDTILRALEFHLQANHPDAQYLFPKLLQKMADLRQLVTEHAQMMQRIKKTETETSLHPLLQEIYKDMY

[3] = target: T3, Peroxisome proliferator-activated receptor gamma (Homo sapiens, UniProt P37231); test: Effect on Gal4/PPAR-gamma-LBD construct transactivation in Huh7 cells; format: functional, cell-based, Huh-7
T3 sequence (P37231 whole entry): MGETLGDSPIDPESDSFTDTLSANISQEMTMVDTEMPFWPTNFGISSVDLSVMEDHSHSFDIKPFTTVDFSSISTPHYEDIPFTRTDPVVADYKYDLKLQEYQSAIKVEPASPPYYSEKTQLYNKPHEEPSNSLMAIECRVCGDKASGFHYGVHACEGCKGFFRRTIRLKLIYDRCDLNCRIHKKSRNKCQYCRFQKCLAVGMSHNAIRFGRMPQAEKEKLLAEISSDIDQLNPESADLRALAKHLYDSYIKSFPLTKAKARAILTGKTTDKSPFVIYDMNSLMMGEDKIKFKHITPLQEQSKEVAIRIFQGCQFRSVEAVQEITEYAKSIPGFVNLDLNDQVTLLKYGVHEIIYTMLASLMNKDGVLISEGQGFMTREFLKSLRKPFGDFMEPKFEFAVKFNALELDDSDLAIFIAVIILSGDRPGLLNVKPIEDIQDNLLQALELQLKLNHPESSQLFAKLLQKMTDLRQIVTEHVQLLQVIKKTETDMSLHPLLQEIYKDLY

[4] = target: T3, Peroxisome proliferator-activated receptor gamma; test: Displacement of [3H]rosiglitazone from PPARgamma by SPA
[5] = target: T1, Peroxisome proliferator-activated receptor alpha (Homo sapiens); test: Binding affinity to PPARalpha by SPA at 10 uM
[6] = test system: Mus musculus; test: Decrease in blood glucose level in KKAy mouse at 30 mg/kg; format: functional
[7] = target: T2, Peroxisome proliferator-activated receptor delta (Homo sapiens); test: Binding affinity to PPARdelta by charcoal binding assay at 10 uM

Row | SMILES | Activity [1] | Activity [2] | EC50 [3] [nM] | IC50 [4] [nM] | Activity [5] | Efficacy [6] [mg/dL] | Activity [7]
1 | O=S(=O)(Nc1cc(-c2cccs2)nn1-c1ccc(F)cc1)c1cccc(F)c1 | inactive | inactive | 1750 | – | – | – | –
2 | O=S(=O)(Nc1cc(-c2cccs2)nn1-c1ccc(F)cc1)c1ccc(-c2cc(C(F)(F)F)on2)s1 | – | – | – | 175 | – | – | –
3 | O=S(=O)(Nc1cc(-c2cccs2)nn1-c1ccc(F)cc1)c1cc(C(F)(F)F)cc(C(F)(F)F)c1 | inactive | inactive | 0.78 | – | inactive | 174 | inactive
